Measurements from patent US7306923B2, “Methods for identification, and compounds useful for the treatment of degenerative & inflammatory diseases” (Galapagos N.V., priority 2004, dated 2007).

Tests used:
[1] = tested on: MMP1 expression by synovial fibroblasts; assay: MMP1 ELISA on SFs triggered with cytokines or supernatant of cytokine-treated THP1 cells; format: cell-based, human; conditions: each cytokine 25 ng/ml or THP1 supernatant 2-fold diluted, 72 h, 96 well plates
Procedure: (§1) A 384-well format ELISA for measurement of MMP1 is developed. Various primary antibodies are tested, as well as various ELISA protocols. The following protocol is developed and validated to measure MMP1 levels in SF supernatant in 384 well plates: white Lumitrac 600 384 well plates (Greiner) are coated with 2 μg/ml anti-MMP1 antibody MAB1346 (Chemicon). The antibody is diluted in buffer 40 (1.21 g Tris base (Sigma), 0.58 g NaCl (Calbiochem) and 5 ml 10% NaN3 (Sigma) in 1 L milliQ water and adjusted to pH 8.5). After overnight incubation at 4° C., plates are washed with PBS (80 g NaCl, 2 g KCl (Sigma), 11.5 g Na2HPO4.7H2O and 2 g KH2PO4 in 10 L milliQ; pH 7.4) and blocked with 100 μl/well Casein buffer (2% Casein (VWR International) in PBS). Next day, casein buffer is removed from ELISA plates and replaced by 50 μl/well EC buffer (4 g casein, 2.13 g Na2HPO4 (Sigma), 2 g bovine albumin (Sigma), 0.69 g NaH2PO4.H2O (Sigma), 0.5 g CHAPS (Roche), 23.3 g NaCl, 4 ml 0,5 M EDTA pH 8 (Invitrogen), 5 ml 10% NaN3 in 1 L milliQ and adjusted to pH 7.0). […] Readout is performed on the Luminoscan Ascent Luminometer (Labsystems) with an integration time of 200 msec or with an Envision reader (Perkin Elmer).
The increase of MMP1 expression by SFs upon treatment with cytokines relevant in the field of RA (TNFα, IL1β and OSM) or a combination thereof is monitored. […]

[2] = tested on: MMP1 expression by synovial fibroblasts; assay: Inhibition of the response of SFs to supernatant of TNFα-triggered THP1 cells, MMP1 ELISA; format: cell-based, human; conditions: dexamethasone 100 nM, SB203580 5 μM, added 1 h before trigger with 2-fold diluted SN of TNFα-activated THP1 cells, 72 h
Procedure: as §1, with “7.0). 0.25 mM DTT (Sigma) is added to the thawed samples plates. After removal of the EC buffer, 20 μl of sample is transferred to the ELISA plates.” for “7.0).”, “Elmer). […]” for “Elmer).”

In the case of TNFα, the “increase (induction) of MMP1 expression by SFs” value [1] is reported as ~3 fold.

C[C@@H]1C[C@H]2[C@@H]3CCC4=CC(=O)C=C[C@]4(C)[C@@]3(F)[C@@H](O)C[C@]2(C)[C@@]1(O)C(=O)CO [dexamethasone] was tested, and the “MMP1 levels lower than control levels” value [2] was 4 fold.

In the case of C[S+]([O-])c1ccc(-c2nc(-c3ccncc3)c(-c3ccc(F)cc3)[nH]2)cc1 (stereo not drawn) [SB203580], the “MMP1 levels lower than control levels” value [2] is reported as 3 fold.
